Read-outs that look alike come from different tables or passages of the source. Where a SMILES comes first, the peptide text is derived from it. Where no end group is shown, it is not given here.
Legend:
[1] = tested on: yeast (Saccharomyces cerevisiae); assay: Disc diffusion assay of yeast growth inhibition (FIG. 1 A-G); assay type: cell-based
Source text: The data shown in FIG. 1(h)-(n) are for the highly resistant yeast Candida glabrata which is difficult to treat due to its high intrinsic resistance to traditional antifungals. The data shown in FIGS. 1(o)-(u) are for Candida albicans. As above, the panels (h) through (u) show the effect of an echinocandin compound, an antimicrobial peptide and a combination of the two on Candida glabrata and Candida albicans.
Sterile filter paper discs (6 mm, Aa, Whatman) were impregnated with either, peptides or caspofungin alone, or peptides and caspofungin together, and left in sterile Petri dishes overnight at room temperature to dry. Following this, 100 μl of mid-exponential phase culture of yeast was spread onto the surface of MEB, pH 7 plus 2% agarose plates and left to dry for 1 h at room temperature. MEB plates were made with 2% agarose rather than agar because the agar inhibited the action of the antimicrobial peptides. Discs containing the various antifungal combinations were then applied to the surface and the plates were incubated at 30° C. for 48 h. Images showing the zones of inhibition were obtained by scanning the plates using an ImageScanner (GE Healthcare UK Ltd, Chalfont St Giles, UK) with ImageMaster Labscan v 3.00 software (GE Healthcare UK Ltd). Images were annotated using Microsoft PhotoDraw.

yeast = assay: Liquid culture assay of yeast growth inhibition, OD600 growth curves (FIG. 4); assay type: cell-based; settings: sub-inhibitory peptide combined with sub-inhibitory caspofungin
Procedure: The lines represent: Blue—untreated yeast culture alone; Yellow—yeast culture in the presence of a subinhibitory concentration of caspofungin alone; Green—yeast culture in the presence of a subinhibitory concentration of an antimicrobial peptide alone; Red—culture in the presence of a combination of sub-inhibitory caspofungin with sub-inhibitory peptide.
Sterile MEB, pH 7 was added (300 μl) to each well of 48-well microtitre plate (Greiner Bio-one Ltd, Stonehouse, UK) followed by appropriate concentrations of each peptide alone, caspofungin alone and various combinations of peptides with caspofungin. The wells were then inoculated with mid-exponential phase yeast cultures to give starting cell numbers of 1000 cells per well. […] OD600 readings were taken every 15 minutes. Data was analysed in Microsoft Excel.

C. albicans SC5314 = assay type: cell-based, Candida albicans; settings: RPMI-1640, <0.5 synergy, >4 antagonism, 0.5 to 4 no interaction
Procedure: (§1) 96-well micro-titre plate (Greiner Bio-one Ltd, Stonehouse, UK) wells were filled with 150 μl MEB or RPMI-1640, 2% MOPS (Sigma), pH 7 and concentrations of either peptides or caspofungin alone, or combinations of peptides with caspofungin. Approximately 500 cells from mid-exponential phase cultures of the yeast strains described above were then added to each well. Plates were incubated at 30° C. for 48 hours and scanned as described above.
(§2) Fractional inhibitory concentration (FIC) indices for combinations of caspofungin or anidulafungin with various antimicrobial peptides calculated from chequerboard assays of visible growth inhibition of three Candida strains tested in RPMI-1640. IC values highlighted in grey indicate combinations where no synergy was observed. Fractional Inhibitory Concentration (FIC)=[…] where <0.5 synergy, >4 antagonism and 0.5 to 4 no interaction. (Odds, F. C. (2003) Synergy, antagonism, and what the chequerboard puts between them. J. Antimic. Chemother.) N/A—not tested.

[2] = tested on: C. albicans (Hospital isolate); assay type: cell-based, Candida albicans; settings: RPMI-1640, <0.5 synergy, >4 antagonism, 0.5 to 4 no interaction
Procedure: as §1, §2

[3] = tested on: C. glabrata (Hospital isolate); assay type: cell-based, Candida glabrata; settings: RPMI-1640, <0.5 synergy, >4 antagonism, 0.5 to 4 no interaction
Procedure: as §1, §2

[4] = peptide applied together with caspofungin
[5] = substance alone, at the concentrations displayed
[6] = peptide combined with anidulafungin
[7] = peptide combined with caspofungin

| Molecule | zones of clearing around impregnated filter paper discs on agar plates [1, 4] | zones of clearing around impregnated filter paper discs on agar plates [1, 5] | yeast growth (OD600) over 24 h in microtitre plate wells (yeast) | Fractional inhibitory concentration (FIC) index (C. albicans SC5314; [6]) | Fractional inhibitory concentration (FIC) index (C. albicans SC5314; [7]) | Fractional inhibitory concentration (FIC) index [2, 6] | Fractional inhibitory concentration (FIC) index [2, 7] | Fractional inhibitory concentration (FIC) index [3, 6] | Fractional inhibitory concentration (FIC) index [3, 7] |
| --- | --- | --- | --- | --- | --- | --- | --- | --- | --- |
| CC[C@H](C)[C@H](NC(=O)[C@H](CCSC)NC(=O)[C@H](C)NC(=O)[C@@H]1CCCN1C(=O)[C@@H](NC(=O)[C@@H](NC(=O)[C@H](CCCCN)NC(=O)[C@@H](NC(=O)[C@H](CC(C)C)NC(=O)CNC(=O)CNC(=O)[C@H](CC(C)C)NC(=O)[C@@H](N)Cc1ccccc1)[C@@H](C)CC)[C@@H](C)CC)C(C)C)C(=O)N[C@H]1CSSC[C@@H](C(=O)O)NC(=O)[C@H](CCCCN)NC(=O)[C@H](CCCCN)NC(=O)[C@H]([C@@H](C)O)NC(=O)[C@H](C(C)C)NC(=O)[C@H](C)NC1=O [Ranalexin, ranalexin] (HELM PEPTIDE1{F.L.G.G.L.I.K.I.V.P.A.M.I.C.A.V.T.K.K.C}$PEPTIDE1,PEPTIDE1,14:R3-20:R3$$$V2.0; N-terminus and C-terminus assumed; bridges inferred) | very clear zones of clearing | minimal effect on yeast growth | complete abolition of yeast growth |  |  |  |  |  |  |
| CC[C@H](C)C[C@H](C)CCCCCCCCC(=O)N[C@H]1C[C@@H](O)[C@@H](NCCN)NC(=O)[C@@H]2[C@@H](O)CCN2C(=O)[C@H]([C@H](O)CCN)NC(=O)[C@H]([C@H](O)[C@@H](O)c2ccc(O)cc2)NC(=O)[C@@H]2C[C@@H](O)CN2C(=O)[C@H]([C@@H](C)O)NC1=O [caspofungin, 1-[(4R,5S)-5[(2-aminoethyl)amino]-N^2-(10,12-dimethyl-1-oxotetradecyl)-4-hydroxy-L-ornithine]-5-[(3R)-3-hydroxy-L-ornithine]pneumocandin B0] |  | no zones of clearing |  |  |  |  |  |  |  |
| ALWKNMLKGIGKLAGK [DsS3(1-16), dermaseptin S3(1-16)] | Evident zones of clearing | no zones of clearing visible | complete abolition of yeast growth |  |  |  |  |  |  |
| Colistin sulfate |  |  |  | 0.230 | 0.249 |  |  |  |  |
| GIGKFLHSAKKFGKAFVGEIMNS [Magainin 2, magainin 2] | very clear zones of clearing | minimal effect on yeast growth | complete abolition of yeast growth | 0.095 | 0.144 | 0.087 | 0.135 | 0.376 | 0.278 |
| Polymyxin B |  |  |  | 0.590 | 0.310 |  |  |  |  |

From US20110281788A1, “ANTI FUNGAL THERAPY” (priority 2008, published 2011)
